Assay results: US10238713B2, “Cyclic tetrapeptides and therapeutic applications thereof” (LODZ UNIVERSITY OF TECHNOLOGY, priority 2010, dated 2019)
Non-standard residues stand in square brackets, D forms with d. Residues, ends and D or L forms follow the SMILES beside them. β3hF = N[C@H](CC(=O)O)Cc1ccccc1

System: BALB/c mice, contact sensitivity to oxazolone
Experiment: Contact sensitivity to oxazolone in BALB/c mice (ear edema, draining lymph node cells, auricle histology)
Assay type: in vivo
Procedure: Mice: BALB/c female mice, 8-10 week-old, delivered by the Institute of Laboratory Medicine, Łódź, Poland, were used for the study. The mice were fed a commercial, pelleted food and water ad libitum. The local ethics committee approved the study.
The test was performed according to Noonan et al. (Int. Arch. Allergy Appl. Immunol., 1978, 56, 523-532), with some modifications. Mice were shaved on the abdomen (2×2 cm area) and after 24 h 100 μl of 0.5% oxazolone in acetone was applied to the shaved area. The contact sensitivity reaction was elicited 5 days later by application of 50 μl of 1% oxazolone in acetone on both sides of the ears. Ear edema was measured 48 h later using a spring caliper. The results were presented as antigen-specific increase of ear thickness (i.e. the background (BG) ear thickness of mice was subtracted from the measured thickness).
In the experiment shown, the compound of formula I-A was applied topically as a 0.1% ointment on both sides of the ears (total volume of 50 μl per ear), at 24 h and 26 h after elicitation of the reaction with the second dose of oxazolone. Reference compounds were used in a similar fashion in the form of commercially available preparations.
Superficial parotid, mandibular and accessory mandibular lymph nodes were isolated, homogenized by pressing against a stainless screen into phosphate buffered solution (PBS), washed twice and re-suspended in PBS containing 0.2% Trypan blue. The total and nonviable cell numbers were determined using a light microscope and Bürker's hemocytometer. Mice treated only with the eliciting dose of antigen served as a background control.
The auricles were fixed in 4% formalin solution for 48 h, washed for 24 h, dehydrated in an alcohol series and embedded in paraffin. The paraffin blocks were sliced in a Micron HM310 microtome into 6 μm sections. The sections were stained with haematoxylin and eosin and with toluidine blue. The histological analysis was performed in a Nikon Eclipse 801 light microscope. On the histological slides containing cross-sections of auricles, the morphometric estimations of neutrophils, macrophages, lymphocytes and mast cells in the perivascular and subepithelial connective tissue were performed. The cells were counted on the area of 0.07 mm^2 at 400× magnification. Morphometric analysis was done with the aid of imagine software NIS-Elements (Nikon). For every examined group, 25 enumerations of neutrophils, macrophages, lymphocytes and mast cells were carried out.

Structure (SMILES): O=C1C[C@H](Cc2ccccc2)NC(=O)[C@@H]2CCCN2C(=O)[C@@H]2CCCN2C(=O)[C@H](Cc2ccccc2)N1 [I-A] (cyclo(FPP[β3hF]))
- toxic effect on draining lymph node cells (proportions of viable and dead cells) (topical treatment, compared to control non-treated mice, FIG. 3): negligible toxic effect
- number of cells in the draining lymph nodes (topical treatment, FIG. 2): decreased the numbers of lymphocytes in the draining lymph nodes to the level registered in non-sensitized mice
- cell number and composition in the inflamed auricles (histology) (topical treatment, FIG. 4): almost entirely reversed the changes observed in control mice
- inhibition of the ear edema (antigen-specific increase of ear thickness) (topical, I-A as 0.1% ointment, references as commercial preparations, 24 h and 26 h after elicitation, FIG. 1): about 80%
